Consider two compounds from US10118901B2 (priority 2013, dated 2018).

For series [1], the target named is HDAC enzymes (Hela Nuclear Extract). The format is biochemical.
A further series in a line: Water solubility. The format is physicochemical. Particulars: thermodynamic from solid; distilled water at room temperature, visual inspection. Here is the method: To measure water solubility, to approximately 10 mg of a sample in a tube-stoppered 10 mL graduated cylinder, increasing volumes of distilled water at room temperature were added according to the steps shown in the table below:
After each addition of water to give the indicated total volume, the mixture was vortexed or sonicated for 1 min and was visually inspected for any undissolved parts of the sample. If, after a total of 10 mL of water had been added (step 5), the sample or parts of it remained undissolved, the contents of the measuring cylinder was transferred to a 100 mL measuring cylinder which was then filled up with water up to 100 mL (20 ml, 25 ml, 50 ml, 100 ml) and shaken. The approximate solubility was given in the table under that volume of added water in which complete dissolution of the sample occurred. If the substance was still apparently insoluble, further dilution was undertaken to ascertain whether the column elution or the flask solubility method should be used.

A further series deals with HL-60(TB). The format is cell-based, human.
Another series relates to K-562. As to the kind of experiment: NCI-60 screen at 10 μM: K-562. As to conditions: Leukemia K-562; 10 μM single dose; 48 hrs. In kind it is cell-based, human. Here is the method:
(§1) NL-101 and CY-102 was sent to U.S. National Cancer Institute (NCI) for NCI 60-cell line screening using a single compound dose (10 μM).
(§2) The human tumor cell lines of the cancer screening panel were grown in RPMI 1640 medium containing 5% fetal bovine serum (5% FBS) and 2 mM L-glutamine. For a typical screening experiment, cells were inoculated into 96-well microtiter plates in 100 μL, at plating densities ranging from 5,000 to 40,000 cells/well depending on the doubling time of individual cell lines. After cell inoculation, the microtiter plates were incubated at 37° C., 5% CO2, 95% air, and 100% relative humidity for 24 h prior to addition of experimental compounds. […]
(§3) Following drug addition, the plates were incubated for an additional 48 hrs at 37° C., 5% CO2, 95% air, and 100% relative humidity. […] Bound stain was subsequently solubilized with 10 mM trizma base, and the absorbance was read on an automated plate reader at a wavelength of 515 nm. […]
(§4) Using the seven absorbance measurements [time zero, (Tz), control growth, (C), and test growth in the presence of drug at the 10 μM concentration levels (Ti)], percentage growth was calculated at each of the drug concentrations levels. Percentage growth inhibition was calculated as: [(Ti−Tz)/(C−Tz)]×100 for which Ti>/=Tz or [(Ti−Tz)/Tz]×100 for which Ti<Tz.

In another series the test system is NCI-H23. As to the kind of experiment: NCI-60 screen at 10 μM: NCI-H23. In kind it is cell-based, human. As to conditions: NSCLC NCI-H23; 10 μM single dose; 48 hrs. As for the experimental part:
as §1, §2, §3, §4

A further series concerns SF-268. As to the kind of experiment: NCI-60 screen at 10 μM: SF-268. Particulars: CNS Cancer (Glioma) SF-268; 10 μM single dose; 48 hrs. In kind it is cell-based, human. As for the experimental part: as §1, §2, §3, §4
The next series relates to OVCAR-5. The series is described as follows: NCI-60 screen at 10 μM: OVCAR-5. The format is cell-based, human. As to conditions: Ovarian Cancer OVCAR-5; 10 μM single dose; 48 hrs. Here is the method: as §1, §2, §3, §4
The test system of a further series is OVCAR-8. As to the kind of experiment: NCI-60 screen at 10 μM: OVCAR-8. In kind it is cell-based, human. Particulars: Ovarian Cancer OVCAR-8; 10 μM single dose; 48 hrs. As for the experimental part:
as §1, §2, §3, §4

The next series relates to CAKI-1. The series is described as follows: NCI-60 screen at 10 μM: CAKI-1. In kind it is cell-based, human. As to conditions: Renal Cancer CAKI-1; 10 μM single dose; 48 hrs. Here is the method:
as §1, §2, §3, §4

The test system of another series is BT-549. The series is described as follows: NCI-60 screen at 10 μM: BT-549. Particulars: Breast Cancer BT-549; 10 μM single dose; 48 hrs. In kind it is cell-based, human. Here is the method: as §1, §2, §3, §4
For the next series, the system named is MDA-MB-468. The series is described as follows: NCI-60 screen at 10 μM: MDA-MB-468. In kind it is cell-based, human. Particulars: Breast Cancer MDA-MB-468; 10 μM single dose; 48 hrs. Here is the method:
as §1, §2, §3, §4

For series [2], the target named is hERG (Human Ether-á-go-go-Related-Gene) (Homo sapiens, UniProt Q12809).
Another series relates to NCI-60 cell lines. As to the kind of experiment: NCI-60 cell line panel screening of NL-101 (NSC#751447). The format is cell-based, human.
For the next series, the system named is CCRF-CEM. The series is described as follows: NCI-60 screen at 10 μM: CCRF-CEM. The format is cell-based, human. Particulars: Leukemia CCRF-CEM; 10 μM single dose; 48 hrs. As for the experimental part: as §1, §2, §3, §4
The test system of a further series is EKVX. The series is described as follows: NCI-60 screen at 10 μM: EKVX. The format is cell-based, human. As to conditions: NSCLC EKVX; 10 μM single dose; 48 hrs. As for the experimental part:
as §1, §2, §3, §4

The next series has as its system NCI-H522. The series is described as follows: NCI-60 screen at 10 μM: NCI-H522. Particulars: NSCLC NCI-H522; 10 μM single dose; 48 hrs. In kind it is cell-based, human. Here is the method: as §1, §2, §3, §4
In the next series the test system is SF-539. The series is described as follows: NCI-60 screen at 10 μM: SF-539. In kind it is cell-based, human. As to conditions: CNS Cancer (Glioma) SF-539; 10 μM single dose; 48 hrs. Here is the method:
as §1, §2, §3, §4

Chain of hERG (Human Ether-á-go-go-Related-Gene) (Q12809 whole entry): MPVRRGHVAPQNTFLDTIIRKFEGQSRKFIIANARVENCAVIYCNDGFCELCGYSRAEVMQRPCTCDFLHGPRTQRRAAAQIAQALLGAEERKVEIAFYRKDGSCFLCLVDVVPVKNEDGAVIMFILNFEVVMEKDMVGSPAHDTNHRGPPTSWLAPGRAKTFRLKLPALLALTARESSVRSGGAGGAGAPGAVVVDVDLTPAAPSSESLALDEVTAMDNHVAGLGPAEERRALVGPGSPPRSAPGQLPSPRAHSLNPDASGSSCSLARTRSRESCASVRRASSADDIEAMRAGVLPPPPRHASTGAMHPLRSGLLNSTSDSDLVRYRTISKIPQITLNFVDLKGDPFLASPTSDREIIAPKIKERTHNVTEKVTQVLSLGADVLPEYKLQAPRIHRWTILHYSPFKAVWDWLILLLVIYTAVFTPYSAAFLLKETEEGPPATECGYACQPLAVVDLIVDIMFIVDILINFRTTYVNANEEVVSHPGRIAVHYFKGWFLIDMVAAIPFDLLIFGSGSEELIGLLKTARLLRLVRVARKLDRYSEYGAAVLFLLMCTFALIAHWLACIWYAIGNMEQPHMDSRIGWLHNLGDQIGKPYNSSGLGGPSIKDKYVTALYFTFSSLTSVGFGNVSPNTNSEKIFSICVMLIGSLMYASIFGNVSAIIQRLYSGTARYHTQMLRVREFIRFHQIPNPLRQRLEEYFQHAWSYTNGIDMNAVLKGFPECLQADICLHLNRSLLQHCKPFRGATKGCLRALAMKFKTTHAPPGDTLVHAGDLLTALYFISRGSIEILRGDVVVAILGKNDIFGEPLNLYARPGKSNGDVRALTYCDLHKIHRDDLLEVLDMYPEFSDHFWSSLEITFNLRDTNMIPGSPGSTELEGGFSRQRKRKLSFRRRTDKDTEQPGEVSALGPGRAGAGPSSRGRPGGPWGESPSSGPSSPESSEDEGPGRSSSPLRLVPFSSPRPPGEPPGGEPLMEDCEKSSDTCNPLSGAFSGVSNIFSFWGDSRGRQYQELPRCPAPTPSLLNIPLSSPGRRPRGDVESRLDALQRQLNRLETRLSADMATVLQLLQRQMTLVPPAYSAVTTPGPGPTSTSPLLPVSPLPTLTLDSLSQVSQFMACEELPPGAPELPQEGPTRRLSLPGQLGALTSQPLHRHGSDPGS

Usually IC50 stands for the concentration needed to halve the response being measured. One may read the solubility as the dissolved amount per volume that the medium holds. High values mean a readily soluble substance, low ones a poorly soluble substance. In series [1] (Hela nuclear extract, N/A* = No HDAC activity up to highest testing concentration of 10 μM), `Cn1c(CCNCc2ccc(/C=C/C(=O)NO)cc2)nc2cc(N(CCCl)CCCl)ccc21` [CY-102] yielded an IC50 of 0.0035 µM. The “fold more potent than SAHA in the HDAC (nuclear extract) assay” value in [1] (versus SAHA) is recorded as “about 10 fold”. This compound also displayed a solubility at 1 min in the series “Water solubility” above 20 mg/mL. Also, the Growth % is given as −10.34% in the series on HL-60(TB); 1.07% in the series with K-562; −6.76% in the series on NCI-H23; −31.46% in the series on SF-268; −3.75% with OVCAR-5; −26.88% with OVCAR-8. The Growth % in the series with CAKI-1 is −25.49%; with BT-549 it was −33.26%; in the series on MDA-MB-468, −21.52%. The “fold less cardiotoxicity compared to NL-101 (hERG assay)” value in series [2] is 5-10 fold.

`Cn1c(CCCCCCC(=O)NO)nc2cc(N(CCCl)CCCl)ccc21` [NL-101]: the IC50 in the series with NCI-60 cell lines (Homo sapiens, on average, read-out: average cellular IC50 in the 60 cancer cell lines) is around 2 µM. The “fold more potent than Bendamustine in the NCI-60 cell lines” value with NCI-60 cell lines (versus Bendamustine) is recorded as 25-100 fold. Further, the Growth % was 18.98% in the series with HL-60(TB); 31.63% in the series with K-562; 17.16% in the series with CCRF-CEM; 92.48% in the series on EKVX; 30.14% in the series on NCI-H23; −5.90% in the series on NCI-H522. The Growth % is given as 10.27% with SF-268; 23.72% in the series with SF-539; 66.28% with OVCAR-5; 32.65% in the series with OVCAR-8; 27.64% with CAKI-1; 79.21% in the series on BT-549. The Growth % in the series with MDA-MB-468 is −34.68%.
